# Laboratory results reported in ChEMBL document CHEMBL1201862, “PubChem BioAssay data set” (2004).
# Activity calls are given as the source filed them.
# Legend:
# HeLa = assay: viability loss in HeLa cells – cell-based, ATP luminescence, cherry-pick samples, cytotoxicity control, dose response (AID 687004); assay type: functional; details: Homo sapiens
# [1] = alpha-synuclein stem-loop luciferase translation blockers – H4 neuroglioma cells, luminescence, confirmation (AID 1988); assay type: functional, cell-based
# [2] = Luminescence Cell-Based Dose Response HTS to Identify Inhibitors of 5'UTR Stem-Loop Driven Prion Protein mRNA Translation in H4 Neuroglioblastoma Cells. [Related pubchem assays: 1827 (Project Summary), 1813 (Primary HTS)]; assay type: functional
# INS1 = assay: INS-1E survival protection against cytokine death – cell-based, luminescence, retest, dose response (AID 449756); assay type: functional; details: Rattus norvegicus;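 further: cell death triggered by IL-1 beta plus TNF-alpha plus IFN-gamma mixture; protective hits raise ATP signal compared with cytokine alone wells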
# [3] = luciferase reporter signal suppression in cells – H4 neuroglioma cells, luminescence, dose response (AID 1990); assay type: functional, cell-based
# [4] = general mammalian cell viability loss – activator set, cherry-pick, cytotoxicity control for miR-122 modulator project, dose response (AID 720690); assay type: functional, cell-based;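 further: HEK293T human cells scored for general mammalian cytotoxicity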
# [5] = general mammalian cell viability loss – inhibitor set, cherry-pick, set 2, cytotoxicity control for miR-122 modulator project, dose response (AID 720697); assay type: functional, cell-based
# [6] = molecular target: T1, DNA repair protein RAD52 homolog (Homo sapiens, UniProt P43351); assay type: functional, biochemical
# T1 sequence (P43351 whole entry): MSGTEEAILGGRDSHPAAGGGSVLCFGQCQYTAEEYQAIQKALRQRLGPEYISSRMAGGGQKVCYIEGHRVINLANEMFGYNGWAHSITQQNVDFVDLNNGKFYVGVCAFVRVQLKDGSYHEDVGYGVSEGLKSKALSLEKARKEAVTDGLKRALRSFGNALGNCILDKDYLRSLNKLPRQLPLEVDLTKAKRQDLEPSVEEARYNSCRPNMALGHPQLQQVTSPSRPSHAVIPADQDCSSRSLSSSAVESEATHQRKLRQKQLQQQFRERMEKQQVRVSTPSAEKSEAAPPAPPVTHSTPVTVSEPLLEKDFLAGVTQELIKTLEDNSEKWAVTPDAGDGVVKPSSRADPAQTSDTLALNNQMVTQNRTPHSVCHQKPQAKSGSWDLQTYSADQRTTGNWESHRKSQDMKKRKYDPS
# [7] = activation of miR-122 Renilla sensor silencing – cell-based, Huh7 psiCHECK-miR122, Renilla luciferase, cherry-picked, dose response (AID 651956); assay type: functional;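 further: huh7 hepatoma cells stably carrying a psiCHECK-2 miR-122 sensor plasmid; renilla luciferase signal reporting endogenous miR-122 activity after 48 h compound exposure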
# Beta-galactosidase = Beta-galactosidase (Escherichia coli, UniProt Q8VNN2); assay: Dose response counterscreen for EBI2 assay utilizing the enzyme, b-galactosidase.; assay type: functional
# [8] = molecular target: T2, Beta-2 adrenergic receptor (Homo sapiens, UniProt P07550); assay: Dose response for HTS for Beta-2AR agonists via FAP method from Powderset3.; assay type: functional
# [9] = molecular target: T2, Beta-2 adrenergic receptor; assay: ADRB2 activation measured by internalization – cell-based, FAP fluorogen, flow cytometry, cherry pick 1, dose response (AID 588763); assay type: functional
# Prothrombin = Prothrombin (Homo sapiens, UniProt P00734); assay: Thrombin 1536 HTS Dose Response Confirmation. [Related pubchem assays: 1046 (Thrombin 1536 HTS; hits were confirmed in this assay)]; assay type: functional
# [10] = molecular target: Broad substrate specificity ATP-binding cassette transporter ABCG2 (Homo sapiens, UniProt Q9UNQ0); assay: blockers of JC-1 export by ABCG2 – Ig-MXP3 cells, flow cytometry, dose response (AID 1690); assay type: functional
# Major prion protein = Major prion protein (Homo sapiens, UniProt P04156); assay type: functional, cell-based
# [11] = molecular target: DNA dC->dU-editing enzyme APOBEC-3G (Homo sapiens, UniProt Q9HC16); assay: Dose Response confirmation of small molecule APOBEC3G DNA Deaminase Inhibitors via a fluorescence-based single-stranded DNA deaminase assay. [Related pubchem assays (depositor defined):AID493012, AID493028]; assay type: functional
# [12] = molecular target: Peroxisome proliferator-activated receptor gamma/Nuclear receptor coactivator 1 (Homo sapiens, UniProt P37231); assay: (§1) TR-FRET dose response biochemical High Throughput Screening assay for agonists of the steroid receptor coactivator 1 (SRC-1) recruitment by the peroxisome proliferator-activated receptor gamma (PPAR gamma): non-selective agonists. [Related pubchem assays (depositor defined):AID1300, AID1808, AID504735, AID631]; assay type: protein assay
# [13] = molecular target: Peroxisome proliferator-activated receptor gamma/Nuclear receptor coactivator 3 (Homo sapiens, UniProt P37231); assay: as §1, with “3 (SRC-3)” for “1 (SRC-1)”, “assays: 1301 (Confirmation screen.), 1048 (Primary screen.)]” for “assays (depositor defined):AID1300, AID1808, AID504735, AID631]”; assay type: functional
# [14] = molecular target: Peroxisome proliferator-activated receptor gamma/Nuclear receptor coactivator 2 (Homo sapiens, UniProt P37231); assay: TR-FRET dose response biochemical High Throughput Screening assay for agonists of the steroid receptor coactivator 2 (SRC-2) recruitment by the peroxisome proliferator-activated receptor gamma (PPAR gamma): non-selective agonists. [Related pubchem assays: 1297, 1032 ]; assay type: functional
# [15] = molecular target: DNA dC->dU-editing enzyme APOBEC-3A (Homo sapiens, UniProt P31941); assay: A3A deaminase inhibition for selectivity – biochemical, dose response (AID 504722); assay type: functional
# [16] = molecular target: FAD-linked sulfhydryl oxidase ALR (Homo sapiens, UniProt P55789); assay: ALR-catalysed DTT oxidation blockers – biochemical, H2O2 detection, luminescence, cherry-pick, dose response (AID 493248)
smiles,measurement,setting,value
CC(=O)c1sc(NC(=O)C2(F)C(F)(F)C(F)(F)C(F)(F)C(F)(F)C2(F)F)nc1C,AC50,HeLa,22.6 µM (active)
same,EC50,[1],32.2 µM (active)
same,EC50,[2],> 120 µM (not active)
same,AC50,INS1,4.23 µM (active)
same,EC50,[3],> 120 µM (not active)
NCC12CC3CC(C1)CC(c1ccc(Br)cc1)(C3)C2,AC50,[4],17.1 µM (active)
same,AC50,[5],5.67 µM (active)
same,AC50,[6],32 µM (active)
same,AC50,[7],16.3 µM (active)
COc1ccc(N2CCN(C(=O)c3ccc4c(c3)CC(c3ccccc3)OC4=O)CC2)cc1 (stereo unspecified),IC50,Beta-galactosidase,> 80 µM (inactive)
CC(Sc1nc(-c2ccccc2)cc(C(F)(F)F)n1)C(=O)N1CCCCC1 (stereo unspecified),EC50,[8],0.0143 µM (active)
same,EC50,[9],0.214 µM (active)
CC(C)C(NS(=O)(=O)c1ccccc1)C(=O)OCc1cc([N+](=O)[O-])cc2c1OCOC2 (stereo unspecified),IC50,Prothrombin,> 50 µM (not active)
same,EC50,[10],1.57 µM (active)
COc1ccccc1-c1n[nH]c(=S)n1-c1ccccc1,IC50,Major prion protein,7.18 µM (active)
same,IC50,[11],4.99 µM (active)
same,EC50,[12],10.5 µM (inactive)
same,EC50,[13],> 79.4 µM (not active)
same,EC50,[14],6.26 µM (active)
same,IC50,[15],> 100 µM (inactive)
same,AC50,[16],0.058 µM (active)
